Measurements: patent US20220169654A1, “New Organic Compounds” (Servier Pharmaceuticals LLC, priority 2020, published 2022)

Assays:
MAT2A homodimer = target: T1, MAT2A homodimer (Homo sapiens, UniProt P31153); experiment: MAT2A inhibition (biochemical, liberated phosphate, PiColorLock Gold); details: recombinant MAT2A homodimer; IC50 bin with Max Inh.; read-out: Enzyme Inhibition Bin
T1 construct: inferred from Ni sepharose purification with imidazole elution; made in house; host or cells: Sf9 insect cells, baculovirus (Bac to Bac, pFASTBAC1)
T1 sequence (P31153 whole entry): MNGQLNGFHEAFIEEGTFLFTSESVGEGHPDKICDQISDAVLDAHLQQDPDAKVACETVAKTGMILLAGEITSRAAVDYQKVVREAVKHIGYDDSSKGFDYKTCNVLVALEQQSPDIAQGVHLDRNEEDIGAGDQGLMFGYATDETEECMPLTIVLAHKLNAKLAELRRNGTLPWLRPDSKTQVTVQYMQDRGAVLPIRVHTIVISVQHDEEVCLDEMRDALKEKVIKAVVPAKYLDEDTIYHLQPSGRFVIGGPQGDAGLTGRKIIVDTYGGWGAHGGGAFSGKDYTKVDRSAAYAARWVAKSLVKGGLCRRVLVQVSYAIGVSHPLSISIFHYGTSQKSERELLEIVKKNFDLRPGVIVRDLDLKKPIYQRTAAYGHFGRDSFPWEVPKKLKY
How it was run: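 Baculovirus/Sf9-expressed, Ni-purified MAT2A (4 μg/mL) preincubated with compound 60 min at 25 °C in Tris pH 8.0/KCl/MgCl2 buffer. Reaction started with 500 μM ATP and 400 μM L-methionine (substrate-mix concentrations), run 60 min at 25 °C. Phosphate measured colorimetrically against a phosphate standard curve to give IC50.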

[1] = test system: SAM in HCT116 human colon carcinoma cell line with MTAP gene deleted (MTAP −/−); experiment: Cellular assay of target engagement (SAM), LC-MS/MS, 72 hrs; type: cell-based; details: HCT-116, IC50 bin with Max Inh., read-out: Cell 72 h SAM Inhibition (MTAP −/−)
How it was run: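 MTAP-deleted HCT116 cells plated 24 h, then given 10-point 3-fold dilutions for 72 hrs at 37° C. Intracellular SAM extracted in cold 80% methanol with 1M acetic acid and d3-SAM standard, quantified by LC-MS/MS (MRM m/z 399.2→250.1); IC50 derived.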

HCT116 MTAP−/− = experiment: Inhibition of cellular proliferation, 4 days, Cell Titer Glo, HCT116 MTAP−/−; type: cell-based; details: Homo sapiens, HCT-116, 96 h, IC50 bin with Max Inh., read-out: 4 Day Relative Growth Inhibition (MTAP −/−)
How it was run: (§1)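 Isogenic HCT116 pair differing only in MTAP status, plated 24 h before treatment with 10-point 3-fold dilutions; 4 days at 37° C./5% CO2. Cell Titer Glo luminescence, blank-subtracted and normalised to 0.2% DMSO control, gives percentage proliferation vs log molar concentration for IC50.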

HCT116 MTAP+/+ = experiment: Inhibition of cellular proliferation, 4 days, Cell Titer Glo, HCT116 MTAP+/+; type: cell-based; details: Homo sapiens, HCT-116, 96 h, IC50 bin with Max Inh., read-out: 4 Day Relative Growth Inhibition (MTAP +/+)
How it was run: as §1

SMILES | IC50 (MAT2A homodimer) | IC50 [1] | IC50 (HCT116 MTAP−/−) | IC50 (HCT116 MTAP+/+)
CNC(=O)c1cn(CC2CC2)c2c(-c3ccc(C)nc3)c(=O)n(-c3ccc4nn(C)cc4c3)nc12 [Example 177, 5-(cyclopropylmethyl)-N-methyl-2-(2-methyl-2H-indazol-5-yl)-4-(6-methylpyridin-3-yl)-3-oxo-3,5-dihydro-2H-pyrrolo[3,2-c]pyridazine-7-carboxamide] | < 100 nM | < 100 nM | 100 to 1000 nM | > 1000 nM
Cc1nn(CC2CC2)c2c(-c3ccc(C4CC4)nc3)c(=O)n(-c3ccc4nn(C)cc4c3)nc12 [Example 211, 1-(cyclopropylmethyl)-7-(6-cyclopropylpyridin-3-yl)-3-methyl-5-(2-methyl-2H-indazol-5-yl)-1H,5H,6H-pyrazolo[4,3-c]pyridazin-6-one] | < 100 nM | < 100 nM | < 100 nM | > 1000 nM
O=c1c(-c2ccc(OC(F)F)cc2)c2c(ccn2CC2CC2)nn1-c1ccncc1 [Example 226, 5-(cyclopropylmethyl)-4-(4-(difluoromethoxy)phenyl)-2-(pyridin-4-yl)-2,5-dihydro-3H-pyrrolo[3,2-c]pyridazin-3-one] | < 100 nM | < 100 nM | < 100 nM | 100 to 1000 nM
